Results taken from patent US9737502B2, “Calebin A for hepatic steatosis” (SAMI LABS LIMITED, priority 2011, dated 2017).

Key:
[1] = test system: adiponectin; test: Study 2: serum adiponectin by ELISA in obese mice; format: in vivo, C57 mice; conditions: Study 2, end of study period
Protocol: Further, on completion of the study period blood samples were collected from all the animals in […] for estimation of systemic expression of leptin and adiponectin. Blood samples were collected humanely from retro-orbital plexus puncture method under mild ether anesthesia with the help of a fine capillary tube. The blood samples collected in tubes without anticoagulant were centrifuged at 3000 rpm for 10 minutes to obtain serum which was subjected to ELISA technique for the estimation of leptin and adiponectin. The import of leptin and adiponectin expression as biomarkers in obesity has been discussed in aforesaid paragraphs. […] Low systemic adiponectin levels have been cited as predictive factors in the progression of disease states like Type II Diabetes mellitus (Chamukuttan Snehalatha et al, “Plasma Adiponectin Is an Independent Predictor of Type 2 Diabetes in Asian Indians”, Diabetes Care December 2003 vol. 26 no. 12 3226-3229).

[2] = test system: mice; test: Acute oral toxicity of Calebin A; format: in vivo
Protocol: No mortality was observed up to 2000 mg/kg p.o. in mice up to two weeks of observation.

[3] = test system: leptin; test: Estimation of leptin in adipocyte supernatant by ELISA; format: cell-based; conditions: human adipocytes
Protocol: (§1) 3T3-L1 cells approximately 60×10^4 cells are seeded for 48-72 hrs to get 70-80% confluence. After 48 hrs 200 μl of AIM (Adipogenesis induction medium) freshly prepared is added. 72 hrs later 200 μl APM (Adipogenesis progression medium) with the test compounds in different concentrations is added to the wells. The cells are incubated for 48 hrs in a humidified atmosphere (37° C.) of 5% CO2 and 95% air. The supernatant is collected and stored for the estimation of leptin, adiponectin, IL-6 and TNF-α by ELISA. Cells are fixed by adding 100 μl of 10% formalin and ORO staining is done. OD is read at 492 nm in microplate reader. The results are expressed as IC50 values using Graphpad prism software.
(§2) The percentage of inhibition of adipogenesis is calculated as follows, % inhibition=C−T/[…] Where C-absorbance of Oil red 0 in differentiating/undifferentiated cells T-absorbance of Oil Red-O in sample treated differentiating/undifferentiated cells. The estimation of leptin, adiponectin, IL-6 and TNF-α is done according to user's manual from R&D Systems.

[4] = test system: Fully differentiated adipocytes; test: Lipolysis (glycerol release) in fully differentiated adipocytes; format: cell-based, Mouse; conditions: fully differentiated adipocytes (8 days)
Protocol: Fully differentiated adipocytes (8 days) previously untreated with Calebin A as described in procedural steps outlined in Example IV were treated with Calebin A at concentrations of 5-30 μM. Lipolysis was linked to the breakdown of lipids into glycerol that was released into the cell culture medium and detected thereof. […] Thus, in another most preferred embodiment, the present invention relates to a method of inducing lipolysis in mammalian adipocytes, said method comprising the step of treating mammalian adipocytes with varying concentrations of Calebin A to bring about the effect of dose dependant lipolysis in said adipocytes. […] Epididymal fat pads were dissected and fixed in 10% buffered formalin for at least 24 hours, then dehydrated with a sequence of ethanol solutions and processed for embedding in paraffin. Sections of 5-6 μm in thickness were cut, de-paraffinized, rehydrated, stained with haematoxylin & eosin (H&E) and subjected to photomicroscopic assessment. Adipocyte size was determined using a Nikon light microscope (Japan) equipped with an ocular micrometer at 200× magnification in 10 random fields per section. […]

[5] = test system: HFD induced hepatic steatosis; test: Liver histopathology and hepatic triglyceride in HFD-fed mice; format: in vivo, C57BL/6J mice; conditions: Calebin A 0.25% and 1% in HFD, dose dependant
Protocol: A portion of the livers in different groups were dissected and fixed in 10% buffered formalin for at least 24 hours, then dehydrated with a sequence of ethanol solutions and processed for embedding in paraffin. Sections of 5-6 μm in thickness were cut, deparaffinized, rehydrated, stained with haematoxylin & eosin (H&E) and subjected to pbotomicroscopic assessment. Liver histopathology was evaluated according to the NAFLD system outlined in Kleiner, D. E., Brunt, E. M., Van, N. M., Behling, C. et al., Design and validation of a histological scoring system for nonalcoholic fatty liver disease. Hepatology 2005, 41, 1313-1321. The score of hepatocellular ballooning was graded 0-2 based on the number of balloon cell per field at ×200 magnification (grading: 0=no balloon cell; 1=few balloon cells; 2=prominent balloon cells) in H&E stained sections. The number of infiltrating immune cells was counted at 200× magnification in five different areas. In the HFD group significant inflammatory degeneration, hepatocellular ballooning degeneration and triglyceride accumulation were seen. Quantitative analysis indicated elevated hepatic triglyceride levels as compared to the ND group. Administration of Calebin A at concentrations of 0.25% and 1% attenuated HFD induced triglyceride, hepatocellular ballooning degeneration and inflammatory infiltration in a dose dependant manner. Accordingly, in another most preferred embodiment, the present invention relates to a method of treating high fat diet (HFD) induced hepatic steatosis in mammals, said method comprising step of bringing into contact HFD affected hepatic cells marked by inflammatory infiltration, hepatocellular ballooning degeneration and high triglyceride levels with Calebin A derived from orally administering to said mammals effective concentrations of Calebin A to bring about the effect of attenuation of hepatic steatosis in a dose dependant manner. Alternatively, in another most preferred embodiment, the present invention also relates to Calebin A for treating high fat diet (HFD) induced hepatic steatosis in mammals.

[6] = test system: IL-6; test: Estimation of IL-6 in adipocyte supernatant by ELISA; format: cell-based; conditions: human adipocytes
Protocol: as §1, §2

COc1cc(/C=C/C(=O)COC(=O)/C=C/c2ccc(O)c(OC)c2)ccc1O [Calebin A]
enhancing the adiponectin expression in the serum of obese animals [1]: significant effect
Autonomic Nervous System: Atexia ([2]; mouse, in vivo, po): Atexia = Nil
Autonomic Nervous System: Diarrhea ([2]; mouse, in vivo, po): Diarrhea = Nil
Autonomic Nervous System: Motor Activity ([2]; mouse, in vivo, po): Motor Activity = Normal
Autonomic Nervous System: Respiration Rate ([2]; mouse, in vivo, po): Respiration Rate = Normal
Central Nervous System: Clonic Convulsions ([2]; mouse, in vivo, po): Clonic Convulsions = Nil
Central Nervous System: Excitation ([2]; mouse, in vivo, po): Excitation = Nil
Central Nervous System: Motor Activity ([2]; mouse, in vivo, po): Motor Activity = Nil
Central Nervous System: Tonic Convulsion ([2]; mouse, in vivo, po): Tonic Convulsion = Nil
Central Nervous System: Tremors ([2]; mouse, in vivo, po): Tremors = Nil
Dermal: Blanching ([2]; mouse, in vivo, po): Blanching = Nil
Dermal: Cyanosis ([2]; mouse, in vivo, po): Cyanosis = Nil
Dermal: Hyperaemia ([2]; mouse, in vivo, po): Hyperaemia = Nil
Food and Water (Intake and Excretion): Fecal Output ([2]; mouse, in vivo, po): Fecal Output = Normal
Food and Water (Intake and Excretion): Urine Output ([2]; mouse, in vivo, po): Urine Output = Normal
General Behaviour: Aggression ([2]; mouse, in vivo, po): Aggression = Nil
General Behaviour: Fear ([2]; mouse, in vivo, po): Fear = Nil
General Behaviour: General Locomotor Activity ([2]; mouse, in vivo, po): Normal
General Behaviour: General Movement ([2]; mouse, in vivo, po): General Movement = Normal
General Behaviour: Passive ([2]; mouse, in vivo, po): Passive = Nil
General Parameters: Diarrhea ([2]; mouse, in vivo, po): Diarrhea = Nil
General Parameters: Muscular Weakness ([2]; mouse, in vivo, po): Muscular Weakness = Nil
General Parameters: Pilo Erection ([2]; mouse, in vivo, po): Pilo Erection = Nil
General Parameters: Salivation ([2]; mouse, in vivo, po): Salivation = Nil
Reflexes: Corneal ([2]; mouse, in vivo, po): Corneal = No effect
Reflexes: Pinnal ([2]; mouse, in vivo, po): Pinnal = No effect
Respiratory System: Respiration Depth ([2]; mouse, in vivo, po): Respiration Depth = Normal
Respiratory System: Respiration Rate ([2]; mouse, in vivo, po): Respiration Rate = Normal
mortality ([2]; up to 2000 mg/kg p.o., up to two weeks of observation): No mortality
percentage inhibition of leptin production ([3]; 0.5 μg/ml): 34.92%
percentage inhibition of leptin production ([3]; 1.0 μg/ml): 41.04%
percentage inhibition of leptin production ([3]; 2.0 μg/ml): 39.48%
release of glycerol into the medium (lipolysis) ([4]; 30 μM): Glycerol was detected
release of glycerol into the medium (lipolysis) ([4]; 5-20 μM): did not bring about the release of glycerol
HFD induced hepatic triglyceride [5]: attenuated
inflammatory infiltration in liver ([5]; H&E): attenuated
hepatocellular ballooning degeneration ([5]; H&E, NAFLD scoring): attenuated
percentage inhibition of IL-6 ([6]; 0.5 μg/ml): 21.31%
percentage inhibition of IL-6 ([6]; 1.0 μg/ml): 32.37%
percentage inhibition of IL-6 ([6]; 2.0 μg/ml): 31.7%
